Data on 1 molecule can be found in patent US20070082819A1 (priority 2003, published 2007).

In this test the test system is eight representative weed species. As to conditions: in vivo.

Each structure is given as a SMILES string.

As to `CCCC[N+](CCCC)(CCCC)CCCC.[Br-]` [Tetrabutylammonium hyrobromide, tetrabutylammonium bromide], the “Mean Activity (%)” value worked out at 72%.
